In ChEMBL document CHEMBL3994652, “Cytotoxic clerodane diterpenoids from Croton crassifolius” (Bioorg Med Chem Lett, 2017):
Active and inactive are the calls of the source. The calls are words filed in the database; no cut-off is given here.

How the values were obtained:
Hep 3B2 [1] = test: Cytotoxicity against human Hep3B cells assessed as growth inhibition after 48 hrs by MTT assay; format: functional, cell-based
HepG2 [2] = test: Cytotoxicity against human HepG2 cells assessed as growth inhibition at 100 uM after 48 hrs by MTT assay; format: functional, cell-based
Hep 3B2 [3] = test: Induction of apoptosis in human Hep3B cells assessed as cleaved PARP level after 48 hrs by Western blot method; format: functional, cell-based
HepG2 [4] = test: Cytotoxicity against human HepG2 cells assessed as growth inhibition after 48 hrs by MTT assay; format: functional, cell-based; conditions: HepG2, 48 h
Hep 3B2 [5] = test: Induction of apoptosis in human Hep3B cells assessed as reduction in pro-caspase 3 level at 10 to 40 uM after 48 hrs by Western blot method; format: functional, cell-based
Hep 3B2 [6] = test: Induction of apoptosis in human Hep3B cells assessed as increase in cleaved caspase 3 level at 10 to 40 uM after 48 hrs by Western blot method; format: functional, cell-based
Hep 3B2 [7] = test: Induction of apoptosis in human Hep3B cells assessed as formation of apoptotic bodies at 20 uM after 48 hrs by acridine orange dye-based fluorescence microscopy; format: functional, cell-based
Hep 3B2 [8] = test: Cytotoxicity against human Hep3B cells assessed as growth inhibition at 100 uM after 48 hrs by MTT assay; format: functional, cell-based
Hep 3B2 [9] = test: Induction of apoptosis in human Hep3B cells assessed as chromatin condensation at 20 uM after 48 hrs by acridine orange dye-based fluorescence microscopy; format: functional, cell-based
Hep 3B2 [10] = test: Induction of apoptosis in human Hep3B cells assessed as cell shrinkage at 20 uM after 48 hrs by acridine orange dye-based fluorescence microscopy; format: functional

| Compound | IC50 (Hep 3B2 [1]) [µM] | growth inhibition (GI) (HepG2 [2]) | Activity (Hep 3B2 [3]) | IC50 (HepG2 [4]) [µM] | Activity (Hep 3B2 [5]) | Activity (Hep 3B2 [6]) | Activity (Hep 3B2 [7]) | growth inhibition (GI) (Hep 3B2 [8]) | Activity (Hep 3B2 [9]) | Activity (Hep 3B2 [10]) |
| --- | --- | --- | --- | --- | --- | --- | --- | --- | --- | --- |
| COC(=O)[C@@]1(C)CC(=O)C=C2C1=CC[C@@H](C)[C@]2(C)CC(=O)c1ccoc1 | 51.6 | Active | – | – | – | – | – | – | – | – |
| O=c1[nH]cc(F)c(=O)[nH]1 [FLUOROURACIL] | 49.7 | – | – | – | – | – | – | – | – | – |
| C[C@H]1C[C@@H]2OC(=O)[C@]3(C)CCCC(=C23)[C@]12C[C@H](c1ccoc1)OC2=O | 42 | Active | Dose-dependent effect | 17.9 | Active | Active | Active | Active | Active | Active |
